# Assay results as given in patent US20250388593A1 (MITSUBISHI TANABE PHARMA CORPORATION, priority 2023, published 2025).
# Molecular target: CRBN truncate (318-426) (Homo sapiens (Human), UniProt Q96SW2)
# Experiment: Measurement of molecular interactions using surface plasmon resonance (SPR), Biacore T200
# Type: binding
# Details: 25° C., immobilized CRBN truncate, upper limit of measurement 200 μM
# Outline: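 Compound injections used 60 s association and 120 s dissociation in HEPES pH 7.5 buffer (150 mM NaCl, 1 mM TCEP, 0.005% Tween 20, 2% DMSO). The ligand was CRBN truncate 318-426 bearing a C-terminal Avi-tag, immobilised via streptavidin on an SA sensor chip.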
# Sequence of CRBN truncate (318-426) (Q96SW2 318-426): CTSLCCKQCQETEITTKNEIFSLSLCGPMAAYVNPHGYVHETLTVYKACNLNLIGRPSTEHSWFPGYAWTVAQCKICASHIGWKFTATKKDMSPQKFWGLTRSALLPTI
row,SMILES,Kd [µM]
1,"Cn1c(=O)n(C2CCCC(=O)NC2=O)c2ccc(/C=C/C(=O)OC(C)(C)C)cc21 (stereo not drawn) [Example 140, tert-Butyl (E)-3-[1-(2,7-oxazepan-3-yl)-3-methyl-2-oxo-benzimidazol-5-yl]-2-propenoate]",≥ 100
2,"Cc1cc([N+](=O)[O-])ccc1N1CCC2(CCCC(=O)NC2=O)C1 (stereo not drawn) [Example 82, 2-(2-Methyl-4-nitrophenyl)-2,7-diazaspiro[4.6]undecane-6,8-dione]",50 to 100
3,"CC(=O)Nc1ccc2nc(N3CCC4(CCCC(=O)NC4=O)C3)sc2c1 (stereo not drawn) [Example 87, N-[2-(6,8-dioxo-2,7-diazaspiro[4.6]undecan-2-yl)-1,3-benzothiazol-6-yl]acetamide]",≥ 100
4,"COc1cccc2c1ccc(=O)n2C1CCCC(=O)NC1=O (stereo not drawn) [Example 258, 3-(5-Methoxy-2-oxoquinolin-1-yl)azepane-2,7-dione]",≥ 100
5,CC(C)(C)[Si](C)(C)OC1c2cccc(Br)c2CC1N1CC=CC(=O)NC1=O (stereo not drawn) [Example 307],≥ 100
6,"Cc1ccc(NC(=O)NCCCn2c(=O)n(C3CCCC(=O)NC3=O)c3ccccc32)cc1Cl (stereo not drawn) [Example 202, 1-(3-Chloro-4-methylphenyl)-3-[3-[3-(2,7-dioxoazepan-3-yl)-2-oxobenzimidazol-1-yl]propyl]urea]",≥ 100
7,"CC(C)(C)OC(=O)C(C)(C)N1CC2(CC(=O)N(C3CCC(=O)NC3=O)C2=O)C1 (stereo not drawn) [Example 49, tert-Butyl 2-[6-(2,6-dioxopiperidin-3-yl)-5,7-dioxo-2,6-diazaspiro[3.4]octan-2-yl]-2-methylpropanoate]",≥ 100
8,"CC(C)(C)OC(=O)NCCCCCCCNc1ccc2nc(N3CCCC(=O)NC3=O)sc2c1 [Example 303, tert-Butyl N-[7-[[2-(2,4-dioxo-1,3-diazepan-1-yl)-1,3-benzothiazol-6-yl]amino]heptyl]carbamate]",≥ 100
9,"CC(C)(C)OC(=O)CCCCCN1CC2(CC(=O)N(C3CCC(=O)NC3=O)C2=O)C1 (stereo not drawn) [Example 229, tert-Butyl 6-[6-(2,6-dioxopiperidin-3-yl)-5,7-dioxo-2,6-diazaspiro[3.4]octan-2-yl]hexanoate]",≥ 100
10,"O=C1CCCC(NS(=O)(=O)c2cccc(Cl)c2)C(=O)N1 (stereo not drawn) [Example 9, 3-Chloro-N-(2,7-dioxoazepan-3-yl) benzenesulfonamide]",≥ 100
11,"Cc1sc2c(c1C)C(c1ccc(Cl)cc1)=N[C@@H](CC(=O)NCCCCCCCCNC(=O)c1ccc(N3CC4(CC(=O)N(C5CCC(=O)NC5=O)C4=O)C3)nc1)c1nnc(C)n1-2 (stereo partly drawn) [Example 330, N-[8-[[2-[(9S)-7-(4-chlorophenyl)-4,5,13-trimethyl-3-thia-1,8,11,12-tetraazatricyclo[8.3.0.02,6]trideca-2(6),4,7,10,12-pentaen-9-yl]acetyl]amino]octyl]-6-[6-(2,6-dioxopiperidin-3-yl)-5,7-dioxo-2,6-diazaspiro[3.4]octan-2-yl]pyridine-3-carboxamide]",< 50
12,"COC(=O)c1ccc(CN2CCC3(CCCC(=O)NC3=O)C2)cc1 (stereo not drawn) [Example 34, Methyl 4-[(6,8-dioxo-2,7-diazaspiro[4.6]undecan-2-yl)methyl]benzoate]",≥ 100
13,"COC(=O)c1ccc(=O)n(C2CCCC(=O)NC2=O)c1 (stereo not drawn) [Example 26, Methyl 1-(2,7-dioxoazepan-3-yl)-6-oxopyridine-3-carboxylate]",≥ 100
14,"CC(=O)N1CCc2nc(N3CCC4(CCCC(=O)NC4=O)C3)ncc2C1 (stereo not drawn) [Example 178, 2-(6-Acetyl-7,8-dihydro-5H-pyrido[4,3-d]pyrimidin-2-yl)-2,7-diazaspiro[4.6]undecane-6,8-dione]",< 50
15,"Cc1sc2c(c1C)C(c1ccc(Cl)cc1)=N[C@@H](CC(=O)NCCCCCOc1ccc3nc(N4CCC5(CCCC(=O)NC5=O)C4)sc3c1)c1nnc(C)n1-2 (stereo partly drawn) [Example 322, 2-[(9S)-7-(4-chlorophenyl)-4,5,13-trimethyl-3-thia-1,8,11,12-tetraazatricyclo[8.3.0.02,6]trideca-2(6),4,7,10,12-pentaen-9-yl]-N-[5-[[2-(6,8-dioxo-2,7-diazaspiro[4.6]undecan-2-yl)-1,3-benzothiazol-6-yl]oxy]pentyl]acetamide]",< 50
16,"Cc1sc2c(c1C)C(c1ccc(Cl)cc1)=N[C@@H](CC(=O)NCCCCCCCCNC(=O)c1ccc(OC3CCCC(=O)NC3=O)nc1)c1nnc(C)n1-2 (stereo partly drawn) [Example 338, N-[8-[[2-[(9S)-7-(4-chlorophenyl)-4,5,13-trimethyl-3-thia-1,8,11,12-tetraazatricyclo[8.3.0.02,6]trideca-2(6),4,7,10,12-pentaen-9-yl]acetyl]amino]octyl]-6-(2,7-dioxoazepan-3-yl)oxypyridine-3-carboxamide]",< 50
17,"Cc1sc2c(c1C)C(c1ccc(Cl)cc1)=N[C@@H](CC(=O)NCCCCCCc1cccc3c(C(=O)N4CCC5(CCCC(=O)NC5=O)C4)cccc13)c1nnc(C)n1-2 (stereo partly drawn) [Example 324, 2-[(9S)-7-(4-chlorophenyl)-4,5,13-trimethyl-3-thia-1,8,11,12-tetraazatricyclo[8.3.0.02,6]trideca-2(6),4,7,10,12-pentaen-9-yl]-N-[6-[5-(6,8-dioxo-2,7-diazaspiro[4.6]undecane-2-carbonyl)naphthalen-1-yl]hexyl]acetamide]",< 50
18,"CC(C)(C)OC(=O)c1ccnc(N2CC3(CC(=O)N(C4CCC(=O)NC4=O)C3=O)C2)c1 (stereo not drawn) [Example 46, tert-Butyl 2-[6-(2,6-dioxopiperidin-3-yl)-5,7-dioxo-2,6-diazaspiro[3.4]octan-2-yl]pyridine-4-carboxylate]",50 to 100
19,"Nc1cccc(C2CCCC(=O)NC2=O)c1 (stereo not drawn) [Example 70, 3-(3-Aminophenyl) azepane-2,7-dione]",≥ 100
20,"O=C1NC(=O)C2(c3ccc(Br)cc3)CCC1CC2 [Example 167, 1-(4-Bromophenyl)-3-azabicyclo [3.2.2]nonane-2,4-dione]",≥ 100
21,"O=C1CCC(N2C(=O)CC3(CN(c4ccc([N+](=O)[O-])cc4)C3)C2=O)C(=O)N1 (stereo not drawn) [Example 232, 6-(2,6-Dioxopiperidin-3-yl)-2-(4-nitrophenyl)-2,6-diazaspiro[3.4]octane-5,7-dione]",50 to 100

# The next lines start with the values.
row,Kd [µM],SMILES
1,< 50,"CC(C)(C)OC(=O)c1ccc(N2CCC3(CCCC(=O)NC3=O)CC2=O)cc1 (stereo not drawn) [Example 109, tert-Butyl 4-(4,7,9-trioxo-3,8-diazaspiro [5.6]dodecan-3-yl) benzoate]"
2,50 to 100,"CC(C)(C)OC(=O)NCCCCCCn1ccc2c(C(=O)N3CCC4(CCCC(=O)NC4=O)C3)cccc21 (stereo not drawn) [Example 162, tert-Butyl N-[6-[4-(6,8-dioxo-2,7-diazaspiro [4.6]undecane-2-carbonyl)indol-1-yl]hexyl]carbamate]"
3,≥ 100,"CC(C)(C)OC(=O)c1ccc(N2CCC3(CCCC(=O)NC3=O)C2=O)nc1 (stereo not drawn) [Example 90-2, tert-Butyl 6-(1,9,11-trioxo-2,10-diazaspiro [4.6]undecan-2-yl) pyridine-3-carboxylate]"
4,≥ 100,"O=C1CCCC2(CCN(C(=O)c3ccccc3)CC2)C(=O)N1 [Example 106, 3-Benzoyl-3,8-diazaspiro [5.6]dodecane-7,9-dione]"
5,≥ 100,"O=C1CCCC2(CCN(C(=O)c3ccccc3)C2)C(=O)N1 (stereo not drawn) [Example 122, 2-Benzoyl-2,7-diazaspiro [4.6]undecane-6,8-dione]"
6,≥ 100,"CC(C)(C)OC(=O)N1CCN(Cc2ccc(N3CCC4(CCCC(=O)NC4=O)C3)nc2)CC1 (stereo not drawn) [Example 99, tert-Butyl 4-[[6-(6,8-dioxo-2,7-diazaspiro [4.6]undecan-2-yl)pyridin-3-yl]methyl]piperazine-1-carboxylate]"
7,50 to 100,"CC(C)(C)OC(=O)c1ccnc(N2CCC3(CCCC(=O)NC3=O)C2)c1 (stereo not drawn) [Example 91, tert-Butyl 2-(6,8-dioxo-2,7-diazaspiro [4.6]undecan-2-yl) pyridine-4-carboxylate]"
8,≥ 100,"CNC(=O)c1ccc(N2CCC3(CCCC(=O)NC3=O)C2)nc1 (stereo not drawn) [Example 96, 6-(6,8-Dioxo-2,7-diazaspiro [4.6]undecan-2-yl)-N-methylpyridine-3-carboxamide]"
9,50 to 100,"CC(C)(C)OC(=O)c1ccc(N2CCC3(CCCC(=O)NC3=O)CC2)nc1 [Example 94, tert-Butyl 6-(7,9-dioxo-3,8-diazaspiro [5.6]dodecan-3-yl) pyridine-3-carboxylate]"
10,≥ 100,"CC(C)(C)OC(=O)c1ccc(N2CC[C@@]3(CCCC(=O)NC3=O)CC2=O)cc1 [Example 224, tert-Butyl 4-(4,7,9-trioxo-3,8-diazaspiro [5.6]dodecan-3-yl) benzoate]"

# Test system: not listed separately
# Experiment: Stability against racemization (chiral HPLC)
# Type: physicochemical
# Details: 0 h, pH 7.4, 37° C.
# Procedure: Test Example 7: Stability Against Racemization Each test sample (1 mg) was dissolved in CH3CN (1 mL), and 0.1 M N-methylmorpholine aqueous solution (adjusted to pH 7.4 with 1N HCl) (1 mL) was added to dilute the solution twofold, thereby preparing a solution with a final concentration of 0.5 mg/mL. The sample was divided into nine portions of 150 μL each, and each portion was placed in a sampler set to 37° C. The enantiomers in the sample were quantified at 0, 1, 3, 6, 24, 48, 72, and 167 hours under the following HPLC conditions, and the enantiomeric excess (ee) at each time point was calculated.
# As test samples, Example Compound 211-1 was used as an example, while (S)-thalidomide represented by the following formula
# • Equipment: ACQUITY UPLC H-Class Waters • Column: […] IE-3 (3 μm, 4.6×150 mm) Daicel Corporation • Flow rate: 0.5 mL/min • Column temperature: 25° C.
# • Mobile phase: 100% MeOH • Injection volume: 0.7 μL • Detection wavelength: 217.0 nm
# • Mobile phase: 100% MeOH • Injection volume: 1.2 μL • Detection wavelength: 221.0 nm
# • Mobile phase: EtOH/CH3CN=90/10 • Injection volume: 1.5 μL • Detection wavelength: 221.0 nm
row,ee Normalized to 100 at 0 min,SMILES
1,100,"O=C1CC[C@H](N2C(=O)c3ccccc3C2=O)C(=O)N1 [(S) Thalidomide, (S)-thalidomide]"

# Same assay, conditions: 0 h, pH 7.4, 37° C., CH3CN/0.1 M N-methylmorpholine aqueous solution
row,ee,SMILES
1,92.11,"O=C1CC[C@H](N2C(=O)c3ccccc3C2=O)C(=O)N1 [(S) Thalidomide, (S)-thalidomide]"

# Same assay, conditions: 24 h, pH 7.4, 37° C.
ee,ee Normalized to 100 at 0 min,SMILES
73.31,79.59,"O=C1CC[C@H](N2C(=O)c3ccccc3C2=O)C(=O)N1 [(S) Thalidomide, (S)-thalidomide]"

# Same assay, conditions: 48 h, pH 7.4, 37° C.
ee,ee Normalized to 100 at 0 min,SMILES
58.25,63.24,"O=C1CC[C@H](N2C(=O)c3ccccc3C2=O)C(=O)N1 [(S) Thalidomide, (S)-thalidomide]"

# Same assay, conditions: 72 h, pH 7.4, 37° C.
ee,ee Normalized to 100 at 0 min,SMILES
46.27,50.23,"O=C1CC[C@H](N2C(=O)c3ccccc3C2=O)C(=O)N1 [(S) Thalidomide, (S)-thalidomide]"

# Same assay, conditions: 167 h, pH 7.4, 37° C.
ee,ee Normalized to 100 at 0 min,SMILES
18.57,20.16,"O=C1CC[C@H](N2C(=O)c3ccccc3C2=O)C(=O)N1 [(S) Thalidomide, (S)-thalidomide]"

# Same assay, conditions: Initial
row,ee,SMILES
1,92.16,"O=C1CC[C@H](N2C(=O)c3ccccc3C2=O)C(=O)N1 [(S) Thalidomide, (S)-thalidomide]"
